Assay results from patent publication US20140113876A1, “BIOMARKERS FOR ASSESSING TREATMENT OF SIALIC ACID DEFICIENCY DISEASES AND CONDITIONS” (ULTRAGENYX PHARMACEUTICAL INC., priority 2012, published 2014).

Test system: HIBM patients
Test: Phase 2 clinical trial: change in serum biomarker levels between week 0 and week 24 per dosage group (Human Discovery MAP250+ v2.0 immunoassay)
Assay type: in vivo
Method: Forty-seven (47) HIBM patient serum samples collected at week 24 from phase 2 study were tested using the Human Discovery MAP250+ v2.0 quantitative immunoassay system developed by Myriad RBM. The results were compared to the serum samples of the same 47 HIBM patients collected at week 0 (baseline) which were conducted earlier with the same immunoassay system.
Patients were unblinded and the results were organized into the 3 assigned dosage groups, placebo (n=14), 3 g/day (n=17) and 6 g/day (n=14). The major focus of the analysis was 1) to assess changes (delta, A) in levels of analytes between baseline and week 24 in each dosage group, 2) whether the changes correlate to dosage levels.
Analytes were excluded from analysis if […] of the HIBM patient samples were below least detectable dose (LDD). Within each dosage group, individual values with >5× difference to the mean of the dosage group were considered as outliers and thus removed from analysis.

[1] = placebo, 3 g/day, 6 g/day, week 0 to week 24, FIG. 4

In the case of `CC(=O)N[C@H]1[C@H]([C@H](O)[C@H](O)CO)OC(O)(C(=O)O)C[C@@H]1O` (some centres unmarked) [Sialic Acid, 5-N-acetylneuraminic acid], the “serum level of LAP TGF-b1, change towards normal level compared to placebo” value (6 g/day dosage group, week 0 to week 24, FIG. 2) is reported as “declined at a faster rate”, the “serum level of NCAM, change towards normal level compared to placebo” value (6 g/day dosage group, week 0 to week 24, FIG. 3) is reported as “increased at a faster rate” and the “change in the levels of the eleven analytes of Table 14 compared to the placebo group” value (6 g/day group, week 24) is reported as “more favorable change”. The “slope of delta from placebo to higher dosage group, analytes with baseline levels higher than normal controls (PAI-1, LGL, myoglobin, ENA-78, TGfb1, M-CSF1, MMP-9, CgA)” value [1] was “downward trend” and the “slope of delta from placebo to higher dosage group, analytes with baseline levels lower than normal controls (NCAM, ErbB3)” value [1] was “upward trend”.
